We go through two compounds from PMC12845078 (Pharmaceuticals, 2025).

The term fraction unbound denotes free concentration divided by total concentration. Usually IC50 stands for the concentration that gives 50% inhibition. Higher therefore signals lower potency. A word on the kinact: it is the maximal first-order rate at which the target is inactivated. What is called Km is the concentration of substrate that gives half-maximal velocity.

In data set [1] the test system is CYP1A2-mediated metabolism of MT. As to conditions: cited from earlier work.
The test system of data set [2] is CYP enzymes of MT 6-hydroxylation. The data set can be described thus: in vitro. As to conditions: human, liver microsomes, probe melatonin (MT) 2 μM, 6-hydroxylation to 6-HMT, IC50 Ratio (IC50 shift), HLM, 30 min pre-incubation with/without NADPH.
Description: (§4) The reaction was initiated by adding pre-warmed NADPH (control groups lacked NADPH). The final incubation mixture contained 100 mM PBS, 5 mM MgCl2, liver microsomes (0.5 mg/mL), 1 mM NADPH, and 0.2% BSA. […] Concentrations in beagle dog microsomal incubations were 0, 0.125, 0.25, 0.5, 1, 2, 4, 8, 16, and 32 μM. […] All samples were prepared in triplicate. The concentration of 6-HMT was quantified using LC-MS/MS.
(§5) Competitive inhibition and time-dependent inhibition assays: The production of 6-HMT without inhibitors was set as 100%.
Data set [3] in a line: Protein binding with hepatic microsomes and plasma proteins across species (summary). Format: in vitro ADME. As to conditions: beagle (dog), rat, human, liver microsomes and plasma, pH 7.4, both hepatic microsomes and plasma proteins. A general note: Liver microsomes are vesicles of endoplasmic reticulum, rich in cytochrome P450 enzymes.
Description: (§6) After incubation for 20 min, a portion of the whole blood was centrifuged at 2500× g for 10 min at 4 °C to separate plasma; another portion of the whole blood was subjected to three cycles of freeze–thawing and ultrasonicated for 10 min to disrupt cells. Equal volumes of plasma and whole blood samples were added to the whole blood and plasma specimens, respectively, followed by protein precipitation with acetonitrile containing an internal standard (IS). […] The RED inserts were placed in the matching incubation plate: 200 µL of drug-containing matrix were added to the sample chamber, and 400 µL of PBS buffer (pH: 7.4) were added to the buffer chamber. After incubation in a constant-temperature shaking incubator for 6 h (37 °C), samples from the sample chamber and buffer chamber were diluted 1:1 with PBS or matrix, respectively, and proteins were precipitated with acetonitrile containing IS.
The test system of data set [4] is CYP enzymes mediating MT 6-hydroxylation in rat liver microsomes. The data set can be described thus: Irreversible (mechanism-based) inhibition of CBD on MT 6-hydroxylation, rat liver microsomes. Format: in vitro ADME. The method, then:
(§1) The reaction was initiated by adding the NADPH working solution that had also been pre-incubated for 5 min. […] After pre-incubation for different durations (0, 5, 10, 20, 30 min), 10 μL of the incubation mixture were transferred to a secondary incubation system containing 148 μL PBS and 2 μL MT working solution (final MT concentration: 200 μM). An additional 40 μL of NADPH were added, and the mixture was incubated for 30 min.
(§2) Irreversible inhibition assays: A semi-logarithmic curve was generated by plotting residual enzyme activity against pre-incubation time. The observed CYP enzyme inactivation rate (Kobs) was derived from the initial slope of the linear regression. The Lineweaver-Burk double reciprocal curve (1/Kobs vs. 1/I) described by Formula (8) was used to determine KI and Kinact: Kinact was estimated from the reciprocal of the Y-intercept, and KI was obtained from the negative reciprocal of the X-intercept.(8) 1/k=KI/Kinact1/I+1/Kinact

The target in data set [5] is T1, CYP enzymes involved in melatonin 6-hydroxylation (Rattus norvegicus, UniProt P04799).
T1 sequence (P04799 2-513): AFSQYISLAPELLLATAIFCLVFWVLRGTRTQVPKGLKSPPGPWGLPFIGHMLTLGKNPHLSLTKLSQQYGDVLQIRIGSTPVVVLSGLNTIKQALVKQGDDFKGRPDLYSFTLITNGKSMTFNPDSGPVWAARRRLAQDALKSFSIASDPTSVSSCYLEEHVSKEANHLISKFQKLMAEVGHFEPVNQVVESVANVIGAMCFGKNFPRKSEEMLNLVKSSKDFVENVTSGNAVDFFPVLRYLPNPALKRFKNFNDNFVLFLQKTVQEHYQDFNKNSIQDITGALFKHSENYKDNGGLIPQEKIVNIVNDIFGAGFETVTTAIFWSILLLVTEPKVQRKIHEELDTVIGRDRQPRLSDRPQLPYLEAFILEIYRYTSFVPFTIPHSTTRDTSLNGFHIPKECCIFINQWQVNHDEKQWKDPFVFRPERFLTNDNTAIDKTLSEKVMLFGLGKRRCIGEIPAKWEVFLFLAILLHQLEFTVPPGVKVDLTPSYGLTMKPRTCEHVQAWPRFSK
The data set can be described thus: Competitive inhibition of CBD on MT 6-hydroxylation, rat liver microsomes. The conditions noted are these: probe melatonin (MT) 1 μM, 6-hydroxylation to 6-HMT. Format: in vitro ADME. On the procedure: (§3) The final incubation system contained 100 mM PBS, 5 mM MgCl2, 0.5 mg/mL liver microsomal protein, and 1 mM NADPH. […] The final concentration of MT was 1 μM.

The nature of data set [6]: Whole blood/plasma distribution ratio, mouse. The data set is classed as in vitro ADME.
Description: as §6
The subject of data set [7] is CYP enzymes of MT 6-hydroxylation. The data set is described as follows: in vitro. The conditions noted are these: beagle, dog, liver microsomes, probe melatonin (MT) 2 μM, 6-hydroxylation to 6-HMT, IC50 Ratio (IC50 shift), DLM, 30 min pre-incubation with/without NADPH.
Description: as §4, §5
Data set [8] concerns the target T2, CYP enzymes mediating MT 6-hydroxylation in human liver microsomes (CYP1A2) (Homo sapiens, UniProt P05177).
T2 construct: tissue XenoTech; host or cells: human liver microsomes
T2 sequence (P05177 1-516): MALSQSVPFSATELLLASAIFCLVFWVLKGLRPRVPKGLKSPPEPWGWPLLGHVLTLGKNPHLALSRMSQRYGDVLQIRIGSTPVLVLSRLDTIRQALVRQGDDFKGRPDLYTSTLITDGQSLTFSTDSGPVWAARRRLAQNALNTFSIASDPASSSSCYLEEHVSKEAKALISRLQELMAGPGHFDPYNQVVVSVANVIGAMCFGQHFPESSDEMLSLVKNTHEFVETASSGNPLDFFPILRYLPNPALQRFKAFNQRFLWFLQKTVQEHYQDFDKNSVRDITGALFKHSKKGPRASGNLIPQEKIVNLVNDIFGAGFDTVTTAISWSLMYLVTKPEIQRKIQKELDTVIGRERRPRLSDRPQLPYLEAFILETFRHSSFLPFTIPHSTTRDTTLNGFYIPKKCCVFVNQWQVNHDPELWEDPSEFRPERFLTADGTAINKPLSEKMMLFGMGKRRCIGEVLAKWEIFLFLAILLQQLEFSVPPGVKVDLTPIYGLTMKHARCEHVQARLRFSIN
The data set can be described thus: Irreversible (mechanism-based) inhibition of CBD on MT 6-hydroxylation, human liver microsomes. Format: in vitro ADME. The method, then:
as §1, §2

In data set [9] the target is T3, CYP1A2 (CYP enzymes mediating MT 6-hydroxylation) (Homo sapiens, UniProt P05177).
T3 construct: tissue XenoTech; host or cells: human liver microsomes
T3 sequence (P05177 1-516): T2 sequence (P05177 1-516)
The data set is described as above. Format: in vitro ADME. As to conditions: probe melatonin (MT) 200 µM, 6-hydroxylation to 6-HMT. On the procedure: as §1, §2

The test system of data set [10] is CYP enzymes of MT 6-hydroxylation. The data set is described as follows: in vitro. The conditions noted are these: rat, liver microsomes, probe melatonin (MT) 2 μM, 6-hydroxylation to 6-HMT, IC50 Ratio (IC50 shift), RLM, 30 min pre-incubation with/without NADPH.
Description: as §4, §5
For data set [11], the target named is T4, CYP enzymes involved in melatonin 6-hydroxylation, human liver microsomes (Homo sapiens, UniProt P05177).
T4 construct: tissue XenoTech; host or cells: human liver microsomes
T4 sequence (P05177 1-516): T2 sequence (P05177 1-516)
The data set is described as follows: Competitive inhibition of CBD on MT 6-hydroxylation, human liver microsomes. Format: in vitro ADME. On the procedure: as §3

Data set [12] concerns the target T5, CYP enzymes involved in melatonin 6-hydroxylation (Homo sapiens, UniProt P05177).
T5 construct: tissue XenoTech; host or cells: human liver microsomes
T5 sequence (P05177 1-516): T2 sequence (P05177 1-516)
The description is as above. The conditions noted are these: human, liver microsomes, probe melatonin (MT) 1 μM, 6-hydroxylation to 6-HMT. Format: in vitro ADME. The method, then: as §3

Data set [13] in a line: in vitro. As to conditions: rat, liver microsomes.
The conditions of data set [14]: read-out: Km of MT 6-hydroxylation; HLM.
The nature of data set [15]: in vitro. The conditions noted are these: human, liver microsomes, Km of MT 6-hydroxylation, HLM.

Take `C=C(C)[C@@H]1CCC(C)=C[C@H]1c1c(O)cc(CCCCC)cc1O` [CBD, Cannabidiol]: in data set [1] (human, CBD dose 2000 mg), the “[I]h (estimated free concentration in liver)” value was 3.55 µM. Further, the “[I]h, concentration adopted for human” value in data set [1] (oral administration of 2000 mg CBD) is 3.55 µM. Also, the results for the IC50 shift at 30 min in data set [2], in [7] and in data set [10] were 2.55, 1.27 and 1.81, respectively. In [3], this compound yielded a fraction unbound at 6 h of under 0.01. Also, in [4], the irreversible inhibitory effect entry was “no irreversible inhibitory effect was observed”. The IC50 at 30 min in data set [5] (human, IC50, inhibition of MT 6-hydroxylation, hepatic microsomes of other species (not beagle)) was 13.5 to 36.5 µM; in data set [5] (IC50, inhibition of MT 6-hydroxylation, RLM, MT 1 μM) it was 13.5 ± 1.15 µM; in data set [5] (IC50, rat, as listed in Table 6 for static DDI model), 9.51 µM; in [12], 3.39 µM. In [6], the “Rb/p (Ratio)” value is 0.82 (0.19). The Ki came to 25.6 µM in [8] and 0.0187 µM in data set [9] (human, liver microsomes). In [9] (human liver microsomes), the kinact is 0.00105 s⁻¹. The IC50 in data set [11] is 16.5 ± 4.23 µM.

For `COc1ccc2[nH]cc(CCNC(C)=O)c2c1` [MT, Melatonin], the Michaelis-Menten constant (Km) at 15 min came out at 147 µM in the data set “in vitro [13]” and 165 µM in “in vitro [15]”. In addition, the Michaelis constant (Km) in [14] was found to be 165 µM.
